Laboratory results taken from US6218393A, “Anthranilic acid derivatives as multi drug resistance modulators” (priority 1997, dated 2001).
pIC50: −log10 of the molar value.

Columns and labels:
AR 1.0 cells [1] = assay: Drug accumulation assay: daunorubicin accumulation in AR 1.0 cells; type: cell-based; details: Mus musculus, 100% = accumulation with verapamil 100 μM, 1 hr, 37° C.
In short: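 Daunorubicin accumulation was measured in cells plated 48 h beforehand. These were AR 1.0 cells, an MDR-resistant derivative of mouse EMT6 mammary carcinoma, cultured at 37 °C in 5% CO2 in RPMI 1640 plus 10% foetal calf serum and 2 mM glutamine.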

H69/LX4 cells = assay: Potentiation of toxicity of various cytotoxic agents, H69/LX4 cell line; type: cell-based; details: Vincristine
Method: (§1) (b) Cells were cultured for four days with a titration of doxorubicin (0.263 nM-17.24 μM) in the presence of a fixed concentration of each compound. Proliferation was quantified as described by Skehen et al, loc cit. The IC50 (concentration required to reduce proliferation to 50% of the untreated controls) for doxorubicin alone and with each compound were derived and used to calculate the potentiation index (PI): [formula]
(§2) The potentiation indices of a selection of compounds using a variety of cell lines and a variety of cytotoxics other than doxorubicin were measured following the protocol described above for doxorubicin, and the results are shown in Table D.

AR 1.0 cells [2] = assay: Potentiation of toxicity of various cytotoxic agents, AR 1.0 cell line; type: cell-based, mouse; details: Taxol
Method: The EMT6 mouse mammary carcinoma cell line and the MDR resistant subline AR 1.0 were cultured in RPMI 1640 medium containing 10% foetal calf serum and 2 mM glutamine at 37° C. in 5% CO2. Cells were passaged between 1 in 200 and 1 in 2000 in the case of the parental cell line and between 1 in 20 and 1 in 200 in the case of the MDR resistant subline, after trypsinisation (0.25% trypsin, 0.2 gl^-1, EDTA).
as §1, §2

AR 1.0 cells [3] = assay: Potentiation index with doxorubicin titration; type: cell-based, mouse
In short: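 Doxorubicin IC50 in AR 1.0 cells (MDR subline of EMT6 mouse mammary carcinoma) determined by sulphorhodamine B after 4-day culture across 0.263 nM-17.24 μM, with and without a fixed dose of test compound; their ratio gives the PI.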

2780AD cells = assay: Potentiation of toxicity of various cytotoxic agents, 2780AD cell line; type: cell-based; details: Taxol
Method: as §1, §2

MDR cells = details: in vitro and in vivo; cited from earlier work
mdr la P-gp gene = details: cited from earlier work

In the case of `COc1cc2c(cc1OC)CN(CCc1ccc(NC(=O)c3sccc3NC(=O)c3cnc4ccccc4c3)cc1)CC2` [compound 9594, Quinoline-3-carboxylic acid (2-{4-[2-(6,7-dimethoxy-3,4-dihydro-1H-isoquinolin-2-yl)-ethyl]-phenylcarbamoyl}-thiophen-3-yl)-amide], the pIC50 (AR 1.0 cells [1]) was 7.06, the “Potentiation Index at RMA concentration 10 nM” value (H69/LX4 cells; RMA 10 nM) was 2 and the “Potentiation Index at RMA concentration 30 nM” value (H69/LX4 cells; RMA 30 nM) was 79. The “Potentiation Index at RMA concentration 50 nM” value (H69/LX4 cells; RMA 50 nM) was 356, the “Potentiation Index at RMA concentration 10 nM” value (AR 1.0 cells [2]; RMA 10 nM) was 50 and the “Potentiation Index at RMA concentration 30 nM” value (AR 1.0 cells [2]; RMA 30 nM) was 308. The “Potentiation Index at RMA concentration 50 nM” value (AR 1.0 cells [2]; RMA 50 nM) was 407, the “Potentiation Index at RMA concentration 10 nM” value (AR 1.0 cells [3]; Table C1, RMA 10 nM) was 11 and the “Potentiation Index at RMA concentration 30 nM” value (AR 1.0 cells [3]; Table C1, RMA 30 nM) was 159. The “Potentiation Index at RMA concentration 50 nM” value (AR 1.0 cells [3]; Table C1, RMA 50 nM) was 307, the “Potentiation Index at RMA concentration 100 nM” value (AR 1.0 cells [3]; Table C1, RMA 100 nM) was 601 and the “Potentiation Index at RMA concentration 10 nM” value (2780AD cells; RMA 10 nM) was 18. For the same compound, the “Potentiation Index at RMA concentration 30 nM” value (2780AD cells; RMA 30 nM) was 425 and the “Potentiation Index at RMA concentration 50 nM” value (2780AD cells; RMA 50 nM) was 1126.

For `COc1ccc(CCN(C)CCCC(C#N)(c2ccc(OC)c(OC)c2)C(C)C)cc1OC` (stereo not shown) [Verapamil], the “sensitisation of MDR cells to Vinca alkaloids” value (MDR cells) is given as “shown to sensitise MDR cells to Vinca alkaloids in vitro and in vivo”.

For ivermectin, the “increased sensitivity of mice deficient in mdr la P-gp gene” value (mdr la P-gp gene) is listed as “up to 100 fold”.
